Experimental data published in patent US8598159B2, “Therapeutic pyrazoloquinoline derivatives” (Dart Neuroscience (Cayman) Ltd., priority 2007, dated 2013).

The compounds below were run on GABAA receptors (assay: Electrophysiology assay (two-electrode voltage clamp, Xenopus oocytes expressing GABAA receptors)). Conditions: positive (Pos) or negative (Neg) modulation of current at GABA EC20, screening concentration of 10 μM.
Assay type: cell-based
Description: The modulation of GABAA function is determined by changes in current as determined in an electrophysiology assay, as is detailed below.
mRNA was prepared from lyophilized plasmid pellets containing cDNA inserts encoding the specific GABAA receptor subunit. cDNAs encoding the α2, α3, and γ3 subunits were subcloned into pBluescript, SK^−. cDNAs encoding the a 1 and a 5 subunits were subcloned into prC while cDNA encoding the β2 subunit was subcloned into pcDNA1. The cDNA construct encoding the g 2s subunit is in the pGH19 expression construct. Overnight cultures of transformed DH5a bacterial cells were performed to grow sufficient quantities for maxiprep isolation of the plasmid cDNA. The resulting plasmid cDNA was linearized by digestion with an appropriate restriction enzyme that cleaves distal to the cDNA insert [XbaI (α1, β2), NotI (α3, γ2 s), SacII (α2), or ApaI (α5)]. Following digestion, plasmid cDNA was treated with proteinase K and extracted with phenol/chloroform/isoamyl alcohol, followed by ethanol precipitation. cDNA quality was assessed by agarose-gel electrophoresis (1.5% agarose gel). Samples were stored at −20° C. until use. In vitro transcription was performed with T7 RNA polymerase. mRNA was then stored at −80° C. until use. Plasmids were linearized with appropriate restriction enzymes before in vitro transcription using the Message Machine kit (Ambion, Austin, Tex.).
GABAA receptor expression in Xenopus oocytes: Following 45 min of 0.15% Tricaine anesthesia, an ovarian section containing the follicular oocytes was removed from the frog through a lateral abdominal incision. Oocytes were immediately placed in a calcium-free solution (NaCl 96 mM, MgCl2 1 mM, KCl 2 mM, Hepes 50 mM, pyruvate 2.5 mM, gentamycin 100 μg/mL, penicillin-streptomycin 50 U/mL, pH 7.4). Following 1.5-2 hour incubation in 0.2% collagenase (type II, Sigma Chemical Co., St. Louis, Mo.) at room temperature, individual Dumont stage V and VI oocytes were transferred to an incubator and maintained overnight in Barth's solution (NaCl 84 mM, NaHCO3 2.4 mM, MgSO4 0.82 mM, KCl 1 mM, Ca(NO3)2 0.33 mM, CaCl2 0.41 mM, Tris/HCl 7.5 mM, pyruvate 2.5 mM, gentamycin 50 μg/mL, penicillin-streptomycin, 100 units/mL, pH 7.4) at 18-20° C. and used for experiments 1-5 days post-injection. Oocytes were injected solution using an electronic microinjector (Drummond, Broomall, Pa.) with 50 nL of RNA containing 0.3-0.5 ng of each subunit RNA in a 1:1:2 ratio. The injected oocytes were used for experiments after 1-5 days of incubation in Barth's solution at 18-20° C.
Measurements of ion currents from oocytes expressing GABAA receptors were performed using a Warner two-electrode voltage-clamp amplifier (Warner Instruments, Inc., Foster City, Calif.) (Park-Chung, M. A., et al. (1999) Brain Res. 830: 72-87 incorporated herein in its entirety). Microelectrodes were fabricated from borosilicate glass capillaries with a programmed pipette puller (Sutter Instrument Co., CA). Microelectrode resistance was 1-3 MΩ when filled with 3 M KCl. The oocyte recording chamber was continuously perfused with ND-96 solution. Oocytes were clamped at a holding potential of −70 mV during data acquisition. The membrane current was filtered at 10 Hz and sampled at 100 Hz. Compounds were applied by a gravity-driven external perfusion system. The working volume of the recording chamber was […] and the rate of the perfusion was approximately […]. Compound application was 20-25 sec followed by a minimum of 150 sec wash. Data acquisition and external perfusion was computer controlled by custom-developed software. All experiments were performed at room temperature (22-24° C.). Dose-response data from each oocyte were fitted to the Hill equation by non-linear regression using the equation: IGABA=Emax/(1+(EC50/c)nH)
Emax is the maximum response, EC50 is the concentration producing 50% of the maximal response, nH is the Hill coefficient and c is the concentration of agonist. […]

In the case of `O=c1c2c[nH]c3ccc(N4CCOCC4)cc3c-2nn1-c1ccccn1` [19c, 8-Morpholin-4-yl-2-pyridin-2-yl-2,5-dihydro-pyrazolo[4,3-c]quinolin-3-one], the “EP Result” value is reported as “Neg”.
For `O=c1c2c[nH]c3ccc(N4CCNCC4)cc3c-2nn1-c1ccc(Cl)cc1` [7c, 2-(4′-Chlorophenyl)-8-piperazin-1-yl-2,5-dihydro-pyrazolo[4,3-c]quinolin-3-one], the “EP Result” value was “Pos”.
For `O=c1c2c[nH]c3cc(N4CCNCC4)ccc3c-2nn1-c1ccc(Cl)cc1` [14c, 2-(4′-Chlorophenyl)-7-piperazin-1-yl-2,5-dihydro-pyrazolo[4,3-c]quinolin-3-one], the “EP Result” value was “Neg”.
With `O=c1c2c[nH]c3c(N4CCOCC4)cc(N4CCOCC4)cc3c-2nn1-c1ccccc1` [58a, 6,8-Bis(morpholin-4-yl)-2-phenyl-2,5-dihydro-pyrazolo[4,3-c]quinolin-3-one] the “EP Result” value was “Neg”.
With `CC(C)N1CCN(c2cc(N3CCN(C(C)C)CC3)c3[nH]cc4c(=O)n(-c5ccccc5)nc-4c3c2)CC1` [58b, 6,8-Bis(4-iso-propylpiperazin-1-yl)-2-phenyl-2,5-dihydro-pyrazolo[4,3-c]quinolin-3-one] the “EP Result” value was “Neg”.

The compounds below were run against GABAA central benzodiazepine receptor (assay: Benzodiazepine binding assay ((3H)-flunitrazepam displacement)). Conditions: read-out: BZ binding assay (IC50); rat whole brain (except cerebellum), 1 nM (3H)-flunitrazepam, 60 minutes at 25° C.; 3-concentration dose response curve.

`O=c1c2c[nH]c3ccc(N4CCOCC4)cc3c-2nn1-c1ccccn1` [19c, 8-Morpholin-4-yl-2-pyridin-2-yl-2,5-dihydro-pyrazolo[4,3-c]quinolin-3-one] and `O=c1c2c[nH]c3ccc(N4CCNCC4)cc3c-2nn1-c1ccc(Cl)cc1` [7c, 2-(4′-Chlorophenyl)-8-piperazin-1-yl-2,5-dihydro-pyrazolo[4,3-c]quinolin-3-one] cannot be ordered by IC50: less than 1 µM for the first, less than 1 µM for the second.

“2-Phenyl-6-(4-iso-propylpiperazin-1-yl)-8-trifluoromethyl-2,5-dihydro-pyrazolo[4,3-c]quinolin-3-one [52d]” and `O=c1c2c[nH]c3cc(N4CCNCC4)ccc3c-2nn1-c1ccc(Cl)cc1` [14c, 2-(4′-Chlorophenyl)-7-piperazin-1-yl-2,5-dihydro-pyrazolo[4,3-c]quinolin-3-one] cannot be ordered by IC50: less than 1 µM for the first, less than 1 µM for the second.

Going from `O=c1c2c[nH]c3cc(N4CCCNCC4)c(F)cc3c-2nn1-c1ccccc1` [28l, 8-Fluoro-7-(perhydro[1,4]-diazepin-1-yl)-2-phenyl-2,5-dihydro-pyrazolo[4,3-c]quinolin-3-one] to `Cc1[nH]c2cc(N3CCOCC3)c(F)cc2c2nn(-c3ccccc3)c(=O)c1-2` [63b, 8-Fluoro-4-methyl-7-morpholin-4-yl-2-phenyl-2,5-dihydro-pyrazolo [4,3-c]quinolin-3-one], the IC50 rises from less than 1 µM to greater than 1 µM.

`O=c1c2c[nH]c3cc(N4CCN(C5CCCC5)CC4)c(F)cc3c-2nn1-c1ccccc1` [28j, 7-(4-Cyclopentylpiperazin-1-yl)-8-fluoro-2-phenyl-2,5-dihydro-pyrazolo[4,3-c]quinolin-3-one] and `O=c1c2c[nH]c3c(N4CCNCC4)cc(C(F)(F)F)cc3c-2nn1-c1ccccc1` [52a, 2-Phenyl-6-piperazin-1-yl-8-trifluoromethyl-2,5-dihydro-pyrazolo[4,3-c]quinolin-3-one] cannot be ordered by IC50: less than 1 µM for the first, less than 1 µM for the second.

First: CN1CCN(c2cc(C(F)(F)F)cc3c4nn(-c5ccccc5)c(=O)c-4c[nH]c23)CC1 [52b, 2-Phenyl-6-(4-methylpiperazin-1-yl)-8-trifluoromethyl-2,5-dihydro-pyrazolo[4,3-c]quinolin-3-one]
Second: O=c1c2c[nH]c3cc(N4CCNCC4)c(F)cc3c-2nn1-c1ccccc1F [28n, 8-Fluoro-2-(2-fluorophenyl)-7-(piperazin-1-yl)-2,5-dihydro-pyrazolo[4,3-c]quinolin-3-one]
The IC50 of the first is lower: less than 1 µM for the first, greater than 1 µM for the second.

Going from `O=c1c2c[nH]c3cc(N4CCC(O)CC4)c(F)cc3c-2nn1-c1ccccc1` [28k, 8-Fluoro-7-(4-hydroxypiperidin-1-yl)-2-phenyl-2,5-dihydro-pyrazolo[4,3-c]quinolin-3-one] to `CN1CCN(c2cc3[nH]cc4c(=O)n(-c5ccsc5)nc-4c3cc2F)CC1` [28q, 8-fluoro-7-(4-methylpiperazin-1-yl)-2-(thiophen-3-yl)-2,5-dihydro-pyrazolo[4,3-c]quinolin-3-one], the IC50 rises from less than 1 µM to greater than 1 µM.

`CN1CCCN(c2cc3[nH]cc4c(=O)n(-c5ccccc5)nc-4c3cc2F)CC1` [28m, 8-Fluoro-7-(4-methylperhydro[1,4]-diazepin-1-yl)-2-phenyl-2,5-dihydro-pyrazolo[4,3-c]quinolin-3-one] and `CN1CCN(c2cc3[nH]cc4c(=O)n(-c5ccccc5F)nc-4c3cc2F)CC1` [28o, 8-fluoro-2-(2-fluorophenyl)-7-(4-methylpiperazin-1-yl)-2,5-dihydro-pyrazolo[4,3-c]quinolin-3-one] cannot be ordered by IC50: less than 1 µM for the first, less than 1 µM for the second.

`O=c1c2c[nH]c3c(F)c(N4CCCNCC4)ccc3c-2nn1-c1ccccc1` [48d, 6-Fluoro-7-(perhydro[1,4]-diazepine-1-yl)-2-phenyl-2,5-dihydro-pyrazolo[4,3-c]quinolin-3-one] and `CC(C)N1CCN(c2ccc3c4nn(-c5ccccc5)c(=O)c-4c[nH]c3c2F)CC1` [48e, 6-Fluoro-7-(4-iso-propylpiperazin-1-yl)-2-phenyl-2,5-dihydro-pyrazolo [4,3-c]quinolin-3-one] cannot be ordered by IC50: less than 1 µM for the first, less than 1 µM for the second.

`CC1CN(c2ccc3[nH]cc4c(=O)n(-c5ccccc5)nc-4c3c2)CC(C)O1` (centres unmarked) [19h, 8-(2,6-Dimethylmorpholin-4-yl)-2-phenyl-2,5-dihydro-pyrazolo[4,3-c]quinolin-3-one] and `O=c1c2c[nH]c3c(N4CCCNCC4)cc(C(F)(F)F)cc3c-2nn1-c1ccccc1` [52c, 2-Phenyl-6-(perhydro[1,4]-diazepine-1-yl)-8-trifluoromethyl-2,5-dihydro-pyrazolo[4,3-c]quinolin-3-one] cannot be ordered by IC50: less than 1 µM for the first, less than 1 µM for the second.

Compared with `CC(C)N1CCN(c2ccc3c4nn(-c5ccccn5)c(=O)c-4c[nH]c3c2F)CC1` [48f, 6-Fluoro-7-(4-iso-propylpiperazin-1-yl)-2-(2′-pyridyl)-2,5-dihydro-pyrazolo[4,3-c]quinolin-3-one], `Cc1[nH]c2cc(N3CCNCC3)c(F)cc2c2nn(-c3ccccc3)c(=O)c1-2` [63a, 8-Fluoro-4-methyl-2-phenyl-7-piperazin-1-yl-2,5-dihydro-pyrazolo[4,3-c]quinolin-3-one] is higher in IC50: less than 1 µM for the first, greater than 1 µM for the second.

`O=c1c2c[nH]c3c(F)c(N4CCOCC4)ccc3c-2nn1-c1ccccc1` [48c, 6-Fluoro-7-(morpholin-4-yl)-2-phenyl-2,5-dihydro-pyrazolo[4,3-c]quinolin-3-one] and `O=c1c2c[nH]c3cc(N4CCOCC4)c(F)cc3c-2nn1-c1ccsc1` [28r, 8-fluoro-7-(morpholin-4-yl)-2-(thiophen-3-yl)-2,5-dihydro-pyrazolo[4,3-c]quinolin-3-one] cannot be ordered by IC50: less than 1 µM for the first, less than 1 µM for the second.

Going from `O=c1c2c[nH]c3c(F)c(N4CCNCC4)ccc3c-2nn1-c1ccccc1` [48a, 6-Fluoro-2-phenyl-7-piperazin-1-yl-2,5-dihydro-pyrazolo[4,3-c]quinolin-3-one] to `CN(C)C1CCN(c2cc3[nH]cc4c(=O)n(-c5ccccc5)nc-4c3cc2F)CC1` [28i, 7-(4-Dimethylaminopiperidin-1-yl)-8-fluoro-2-phenyl-2,5-dihydro-pyrazolo[4,3-c]quinolin-3-one], the IC50 falls from greater than 1 µM to less than 1 µM. The second is the more potent here.

First: CN1CCN(c2ccc3c4nn(-c5ccccc5)c(=O)c-4c[nH]c3c2F)CC1 [48b, 6-Fluoro-7-(4-methyl-piperazin-1-yl)-2-phenyl-2,5-dihydro-pyrazolo [4,3-c]quinolin-3-one]
Second: O=c1c2c[nH]c3cc(N4CCOCC4)c(F)c(N4CCOCC4)c3c-2nn1-c1ccccc1 [compound 55, 7,9-Bis(morpholin-4-yl)-8-fluoro-2-phenyl-2,5-dihydro-pyrazolo[4,3-c]quinolin-3-one]
The IC50 of the first is higher: greater than 1 µM for the first, less than 1 µM for the second. The second is the more potent here.

`O=c1c2c[nH]c3cc(N4CCNCC4)c(F)cc3c-2nn1-c1ccccc1` [28a, 8-Fluoro-2-phenyl-7-piperazin-1-yl-2,5-dihydro-pyrazolo[4,3-c]quinolin-3-one] showed an IC50 of less than 1 µM.
